Experimental data from patent US6583146B1, “Thiazolopyrimidine compounds, its production and use” (Takeda Chemical Industries, Ltd., priority 1999, dated 2003).
pIC50: −log10 of the molar value.

Biological target: T1, human adenosine A3 receptor (Homo sapiens, UniProt P0DMS8)
T1 construct: expressed in transfected cells; membrane fraction used
T1 sequence (P0DMS8 1-318): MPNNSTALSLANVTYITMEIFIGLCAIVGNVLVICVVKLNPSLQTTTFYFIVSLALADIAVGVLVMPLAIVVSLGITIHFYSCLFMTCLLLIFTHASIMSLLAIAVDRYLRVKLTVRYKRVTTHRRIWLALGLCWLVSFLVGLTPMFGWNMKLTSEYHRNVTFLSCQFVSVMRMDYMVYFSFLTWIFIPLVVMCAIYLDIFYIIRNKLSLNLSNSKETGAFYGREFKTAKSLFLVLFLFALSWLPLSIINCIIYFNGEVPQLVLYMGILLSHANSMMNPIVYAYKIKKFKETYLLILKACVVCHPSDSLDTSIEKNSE
Test: Binding assays with adenosine A3 receptor ([3H]-NECA displacement, A3AR/CHO cell membranes)
Settings: [3H]-NECA as ligand; 100 μg/mL membranes of CHO cells expressing human adenosine A3 receptor; 1 hour at room temperature; read-out: IC50 (concentration that inhibits 50% specific binding of [3H]-NECA to the membrane)
Method: The following procedures in this Example were carried out according to the methods described in Molecular Cloning —Cold Spring Harbor Laboratory (1989) or protocol specified by manufacturers.
Cloning of the human adenosine A3 receptor gene was carried out by the polymerase chain reaction (PCR) from human brain cDNA. Using 1 ng of brain cDNA (Quick-Clone cDNA, TOYOBO, Osaka) as template, PCR was performed in DNA Thermal Cycler 480 (Perkin Elmer) (reaction conditions: 35 cycles of 1 min at 95° C., 1 min at 66° C., and 2 min at 75° C.) by mixing primers (50 pmol each),
5′-[…]-3′ [Sequence No. 1] and 5′-[…]-3′ [Sequence No. 2], which were designed referring to nucleotide sequence of adenosine A3 receptor gene reported by Salvatore et. al., (Proc. Natl. Acad. Sci. U. S. A., 90:10365-10369, 1993) and TaKaRa LA PCR Kit Ver.2 (TaKaRa Shuzo Co. Ltd., Kyoto). The PCR product was electrophoresed and 1.0 kb DNA fragment was recovered. The DNA fragment encoding adenosine A3 receptor was cloned using Original TA Cloning Kit (FUNAKOSHI, Tokyo).
Thus obtained plasmid was digested with Xba I (TaKaRa Shuzo Co. Ltd., Kyoto), blunted with T4 DNA polymerase (TaKaRa Shuzo Co. Ltd., Kyoto) and digested with Sal I (TaKaRa Shuzo Co. Ltd., Kyoto) to obtain adenosine A3 receptor gene fragment. […]

`COc1ccc(-c2c(-c3ccncc3)sc3nc(=O)cc(N)n23)cc1` [Example Compound 1, 5-Amino-3-(4-methoxyphenyl)-2-(4-pyridyl)-7H-thiazolo[3,2-a]pyrimidin-7-one] showed a pIC50 of 8.46.
